Test results: ChEMBL document CHEMBL3091296, “Design, synthesis and biological evaluation of 3-benzyloxy-linked pyrimidinylphenylamine derivatives as potent HIV-1 NNRTIs” (Bioorg Med Chem, 2013)

Assays:
[1] = Selectivity index, ratio of CC50 for human MT4 cells to EC50 for wild-type HIV1 3B infected in MT4 cells; type: toxicity, cell-based; details: read-out: Ratio CC50/EC50
[2] = Cytotoxicity against mock-infected human MT4 cells after 5 days by MTT assay; type: cell-based
[3] = tested on: Human immunodeficiency virus 1; assay: Antiviral activity against HIV1 harboring reverse transcriptase K103N/Y181C mutant infected in MT4 cells assessed as reduction in virus-induced cytopathic effect after 5 days by MTT assay; type: functional, organism-based; details: Human immunodeficiency virus 1, MT4, 120 h
[4] = tested on: Human immunodeficiency virus 1; assay: Antiviral activity against wild-type HIV1 3B infected in MT4 cells assessed as reduction in virus-induced cytopathic effect after 5 days by MTT assay; type: functional, organism-based; details: Human immunodeficiency virus 1, 3B, MT4, 120 h
[5] = tested on: Human immunodeficiency virus 2; assay: Antiviral activity against HIV2 ROD infected in MT4 cells assessed as reduction in virus-induced cytopathic effect after 5 days by MTT assay; type: functional, organism-based; details: Human immunodeficiency virus 2, ISOLATE ROD, MT4, 120 h
[6] = molecular target: Human immunodeficiency virus type 1 reverse transcriptase (Human immunodeficiency virus 1, UniProt Q72547); assay: Inhibition of HIV-1 reverse transcriptase assessed as inhibition of biotin dUTP incorporation by primer extension assay

SMILES | selectivity ratio [1] | CC50 at 120 h [2] [µM] | EC50 [3] [µM] | EC50 [4] [µM] | EC50 [5] [µM] | IC50 [6] [µM]
COc1ccnc(Nc2ccc(Cl)c(Oc3ccccc3)c2)n1 | 15 |  |  |  |  | 
COc1ccnc(Nc2ccc(Cl)c(OCc3ccc(C#N)cc3)c2)n1 | 17 | 283 | > 283 | 17 | > 283 | 
COc1ccnc(Nc2ccc(Cl)c(OCc3ccccc3C)c2)n1 | 106 | 8.8 | > 8.8 | 0.082 | > 8.8 | 
COc1ccc(COc2cc(Nc3nccc(OC)n3)ccc2Cl)cc1 | ≥ 37 | ≥ 290 | > 290 | 7.8 | > 290 | 
COc1ccnc(Nc2ccc(Cl)c(OCc3ccc([N+](=O)[O-])cc3)c2)n1 | > 1 | > 323 |  | > 323 |  | 
COC(=O)c1ccc(COc2cc(Nc3nccc(OC)n3)ccc2Cl)cc1 | < 1 | ≥ 106 |  | > 106 | > 1.6 | 
COc1ccnc(Nc2ccc(Cl)c(OCc3ccc(C(N)=O)cc3)c2)n1 | > 9 | > 325 | > 325 | 35 | > 325 | 
COc1ccnc(Nc2ccc(Cl)c(OCc3cccc(Cl)c3)c2)n1 | > 1460 | > 332 | > 332 | 0.23 | > 332 | 
COc1ccnc(Nc2ccc(Cl)c(OCc3ccc(Cl)cc3)c2)n1 | 12 | 95 | > 95 | 7.7 | > 95 | 
COc1ccnc(Nc2ccc(Cl)c(OCc3ccc(Cl)cc3Cl)c2)n1 | < 1 | 77 |  | > 77 | > 77 | 
COc1ccnc(Nc2ccc(Cl)c(OCc3ccc(Cl)c(Cl)c3)c2)n1 | > 1 | > 304 |  | > 304 | > 304 | 
COc1ccnc(Nc2ccc(Cl)c(OCc3ccccc3F)c2)n1 | 777 | 42 | > 42 | 0.05 | > 42 | 
COc1ccnc(Nc2ccc(Cl)c(OCc3cccc(F)c3)c2)n1 | > 4870 | > 347 | > 347 | 0.07 | > 347 | 1.5
COc1ccnc(Nc2ccc(Cl)c(OCc3ccc(F)cc3)c2)n1 | 309 | 218 | > 218 | 0.71 | > 218 | 
COc1ccnc(Nc2ccc(Cl)c(OCc3ccccc3Br)c2)n1 | 158 | 52 | > 52 | 0.33 | > 52 | 
COc1ccnc(Nc2ccc(Cl)c(OCc3cccc(Br)c3)c2)n1 | > 393 | > 297 | > 297 | 0.76 | > 297 | 
COc1ccnc(Nc2ccc(Cl)c(OCc3ccc(Br)cc3)c2)n1 | 10 | 224 | > 224 | 23 | > 224 | 
COc1ccnc(Nc2ccc(Cl)c(OCc3ccccc3C#N)c2)n1 | 1290 | 199 | > 199 | 0.15 | > 199 | 
COc1ccnc(Nc2ccc(Cl)c(OCc3ccccc3Cl)c2)n1 | 143 | 33 | > 33 | 0.23 | > 33 | 
COc1ccnc(Nc2ccc(Cl)c(OCc3ccccc3)c2)n1 | 833 | 62 | > 62 | 0.075 | > 62 | 
O=C1Nc2ccc(Cl)cc2[C@@](C#CC2CC2)(C(F)(F)F)O1 [EFAVIRENZ] | > 693 |  | 0.52 | 0.009 |  | 
Cc1ccnc2c1NC(=O)c1cccnc1N2C1CC1 [NEVIRAPINE] |  | > 15 | > 5 | 0.113 |  | 
